pKi: −log10 of the molar value. ≈ marks a conversion by molar mass, not a printed value. Like-named read-outs stand apart in the source and are kept apart here. *1 amine or outer side, *2 acyl side, *3 side chain or, on linkers, in order; H or OH if unused. Where a SMILES comes first, the peptide text is derived from it. Bridges are numbered along the chain shown (N, C = ends). [ ]: non-standard residue; d: D form. The star is where a group is joined. Palmitoyl(16-(5-tetrazolyl)) = O=C(CCCCCCCCCCCCCCCc1nnn[nH]1)*; X2 = O=C(CCCCCCCCCCCCCCCc1nnn[nH]1)NS(=O)(=O)CCCC(=O)*; Lys(CH2CO2H)2 = N[C@@H](CCCCN(CC(=O)O)CC(=O)O)C(=O)O; X1 = O=C(O)CN(CC(=O)O)C[C@H](N[*:1])C(=O)[*:2]; C20 diacid = O=C(O)CCCCCCCCCCCCCCCCCCC(=O)*; Hyp = O=C(O)[C@@H]1C[C@@H](O)CN1; NTA = O=C(O)CN(CC(=O)O)CC(=O)*; Nle = CCCC[C@H](N)C(=O)O; Dab = NCC[C@H](N)C(=O)O; Dap = NC[C@H](N)C(=O)O; AEEA = NCCOCCOCC(=O)O; βAla = NCCC(=O)O
Columns and labels:
[1] = Solubility data of compounds in water over the pH range; assay type: physicochemical; conditions: read-out: Conc (solubility in water)
human MC4 receptor = target: T1, human MC4 receptor (Homo sapiens, UniProt P32245); assay: Assay (V) Melanocortin Receptor 4 (MC4) binding assay; conditions: 125NDP-α-MSH binding, BHK cell membranes; for Ki: Assay (V) MC4 [Ki] (nM); for pKi: read-out: Assay (V) MC4 [Ki]
T1 construct: expressed in transfected cells
T1 sequence (P32245 whole entry): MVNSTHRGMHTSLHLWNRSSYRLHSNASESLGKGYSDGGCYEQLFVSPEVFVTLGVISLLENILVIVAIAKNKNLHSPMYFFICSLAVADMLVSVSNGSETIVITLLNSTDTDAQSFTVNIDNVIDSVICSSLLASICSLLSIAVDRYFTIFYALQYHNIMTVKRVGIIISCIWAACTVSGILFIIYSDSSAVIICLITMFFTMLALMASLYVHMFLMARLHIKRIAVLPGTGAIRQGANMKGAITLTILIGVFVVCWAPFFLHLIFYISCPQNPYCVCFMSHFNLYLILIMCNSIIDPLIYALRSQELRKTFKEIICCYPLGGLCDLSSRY
Procedure: Assay (V)—Melanocortin Receptor 4 (MC4) Binding Assay
In vitro ^125NDP-α-MSH binding to recombinant BHK cells expressing human MC4 receptor (filtration assay).
The assay is performed in 5 ml minisorb vials (Sarstedt No. 55.526) or in 96-well filterplates (Millipore MADVN 6550), and using BHK cells expressing the human MC4 receptor using BHK cells stably expressing the human MC4 receptor. The membranes were prepared from frozen or fresh cells that were homogenized in 20 mM HEPES pH 7.1, 5 mM MgCl2 and 1 mg/ml bacitracin and centrifuged at 15000 rpm at 4° C., 10 min in a Sorvall RC 5B plus, SS-34 rotor. The supernatant was discarded, and the pellets were re-suspended in buffer, homogenized and centrifuged two more times. The final pellets were resuspended in the buffer mentioned above, and the protein concentration was measured and adjusted with buffer to 14 to 17 mg/ml and the membrane preparation were kept at −80° C. until assay. The assay was run directly on a dilution of this cell membrane suspension, without any further preparation. The BHK cell membranes are kept at −80° C. until assay, and the assay is run directly on a dilution of this cell membrane suspension, without further preparation. The suspension is diluted to give maximally 10% specific binding, i.e. to approx. 50-100 fold dilution. The assay is performed in a total volume of 200 μl: 50 μl of cell suspension, 50 μl of ^125NDP-α-MSH (≈79 pM in final concentration), 50 μl of test compound and 50 μl binding buffer (pH 7) mixed and incubated for 2 h at 25° C. [binding buffer: 25 mM HEPES, pH 7.0, 1 mM CaCl2, 1 mM MgSO4, 1 mM EGTA, 0.02% Bacitracin, 0.005% Tween™ 20 and 0.1% HSA or, alternatively, 0.1% ovalbumin (Sigma; catalogue No. A-5503)]. Test compounds are dissolved in DMSO and diluted in binding buffer. Radiolabelled ligand and membranes are diluted in binding buffer. The incubation is stopped by dilution with 2×100 μl ice-cold 0.9% NaCl. The radioactivity retained on the filters is counted using a Cobra II auto gamma counter.
(§1) The data are analysed by non-linear regression analysis of binding curves, using the Windows™ program GraphPad™ Prism (GraphPad Software, USA).

MC1 receptor = target: T2, MC1 receptor (Homo sapiens, UniProt Q01726); assay: Assay (IV) Melanocortin Receptor 1 (MC1) binding assay
T2 construct: expressed in transfected cells
T2 sequence (Q01726 whole entry): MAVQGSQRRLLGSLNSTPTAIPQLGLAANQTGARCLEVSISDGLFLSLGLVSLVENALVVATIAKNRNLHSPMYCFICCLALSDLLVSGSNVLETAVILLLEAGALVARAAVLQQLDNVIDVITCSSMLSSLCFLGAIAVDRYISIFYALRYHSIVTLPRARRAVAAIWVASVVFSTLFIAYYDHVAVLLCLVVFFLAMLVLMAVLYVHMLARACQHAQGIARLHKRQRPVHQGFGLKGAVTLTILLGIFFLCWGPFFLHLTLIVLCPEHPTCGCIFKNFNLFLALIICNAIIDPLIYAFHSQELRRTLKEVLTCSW
Procedure: Assay (IV)—Melanocortin Receptor 1 (MC1) Binding Assay
The MC1 receptor binding assay is performed on BHK cell membranes stably expressing the MC1 receptor. The assay is performed in a total volume of 250 NI: 25 μl of ^125NDP-α-MSH (22 pM in final concentration), 25 μl of test compound/control and 200 μl of cell membrane (25 μg/ml). Test compounds are dissolved in DMSO. Radioactively labeled ligand, membranes and test compounds are diluted in buffer: 25 mM HEPES, pH 7.4, 0.1 mM CaCl2, 1 mM MgSO4, 1 mM EDTA, 0.1% HSA and 0.005% Tween™ 20. Alternatively, HSA may be substituted with ovalbumin. The samples are incubated at 30° C. for 90 min. in Costar round-bottom microtiter plates. Incubation is terminated by filtration on a Packard harvester filtermate. Rapid filtration through Packard Unifilter-96 GF/B filters pre-treated with polyethylenimine (PerkinElmer 6005277). The filters are washed with ice-cold 0.9% NaCl 8-10 times. The plates is air dried at app. 55° C. for 30 min, and 50 μl Microscint 0 (Packard, cat. No. 6013616) is added to each well. The plates are counted in a Topcounter (1 min/well).
as §1

[2] = 125NDP-α-MSH binding, BHK cell membranes, read-out: Assay (IV) MC1 Ki

SMILES: CCCC[C@H](NC(=O)[C@H](CCCCN(CC(=O)O)CC(=O)O)NC(=O)CCNC(=O)[C@H](Cc1c[nH]cn1)NC(=O)[C@H](CCC(N)=O)NC(=O)[C@H](CO)NC(=O)[C@H](CO)NC(=O)[C@H](CCC(N)=O)NC(=O)[C@@H](CO)NC(=O)CNC(=O)COCCOCCNC(=O)COCCOCCNC(=O)CCCCCCCCCCCCCCCc1nnn[nH]1)C(=O)N[C@H]1CCC(=O)NCCCC[C@@H](C(N)=O)NC(=O)[C@H](Cc2c[nH]c3ccccc23)NC(=O)[C@H](CCCNC(=N)N)NC(=O)[C@@H](Cc2ccccc2)NC(=O)[C@@H]2C[C@@H](O)CN2C1=O [Example 12, (2-{2-[2-(2-{2-[16-(Tetrazol-5-yl)hexadecanoylamino]ethoxy}ethoxy)acetylamino]ethoxy}ethoxy)acetyl-Gly-D-Ser-Gln-Ser-Ser-Gln-His-β-Ala-Lys(biscarboxymethyl)-Nle-c[Glu-Hyp-D-Phe-Arg-Trp-Lys]-NH2] ({Palmitoyl(16-(5-tetrazolyl))-AEEA-AEEA}-G[dS]QSSQH[βAla][Lys(CH2CO2H)2][Nle]E[Hyp][dF]RWK-NH2; lactam 11-16)
- solubility at 3 days ([1]; pH 3.1, pH 3.10): 409 µM (≈ 1060 µg/mL)
- solubility at 3 days ([1]; pH 4.11, pH 4.11): 374 µM (≈ 971 µg/mL)
- solubility at 3 days ([1]; pH 4.69, pH 4.69): 395 µM (≈ 1030 µg/mL)
- solubility at 3 days ([1]; pH 4.82, pH 4.82): 268 µM (≈ 696 µg/mL)
- solubility at 3 days ([1]; pH 5.07, pH 5.07): 136 µM (≈ 353 µg/mL)
- solubility at 3 days ([1]; pH 5.56, pH 5.56): 43 µM (≈ 112 µg/mL)
- solubility at 3 days ([1]; pH 6.71, pH 6.71): 58 µM (≈ 151 µg/mL)
- solubility at 3 days ([1]; pH 6.71): 87 µM (≈ 226 µg/mL)
- solubility at 3 days ([1]; pH 6.99): 119 µM (≈ 309 µg/mL)
- solubility at 3 days ([1]; pH 7.15, pH 7.15): 210 µM (≈ 545 µg/mL)
- solubility at 3 days ([1]; pH 7.72, pH 7.72): 256 µM (≈ 665 µg/mL)
- Ki (human MC4 receptor): 2.85 nM

SMILES: CCCC[C@H](NC(=O)[C@H](CN(CC(=O)O)CC(=O)O)NC(=O)[C@H](Cc1c[nH]cn1)NC(=O)[C@H](CCC(N)=O)NC(=O)[C@H](CO)NC(=O)CNC(=O)COCCOCCNC(=O)CCCCCCCCCCCCCCCc1nnn[nH]1)C(=O)N[C@H]1CCC(=O)NCCCC[C@@H](C(N)=O)NC(=O)[C@H](Cc2c[nH]c3ccccc23)NC(=O)[C@H](CCCNC(=N)N)NC(=O)[C@@H](Cc2ccccc2)NC(=O)[C@@H]2C[C@@H](O)CN2C1=O [Example 6, (2-{2-[16-(Tetrazol-5-yl)hexadecanoylamino]ethoxy}ethoxy)acetyl-Gly-Ser-Gln-His-Dap(biscarboxymethyl)-Nle-c[Glu-Hyp-D-Phe-Arg-Trp-Lys]-NH2] ({Palmitoyl(16-(5-tetrazolyl))-AEEA}-GSQH[X1][Nle]E[Hyp][dF]RWK-NH2; lactam 7-12)
- Ki (human MC4 receptor): 2.9 nM
- pKi (MC1 receptor): 5.23

SMILES: CCCC[C@H](NC(=O)CCNC(=O)[C@H](CCCCN(CC(=O)O)CC(=O)O)NC(=O)[C@H](Cc1c[nH]cn1)NC(=O)[C@H](CCC(N)=O)NC(=O)[C@H](CO)NC(=O)[C@H](CO)NC(=O)[C@H](CCC(N)=O)NC(=O)[C@@H](CO)NC(=O)CNC(=O)COCCOCCNC(=O)COCCOCCNC(=O)CCCCCCCCCCCCCCCCCCC(=O)O)C(=O)N[C@H]1CCC(=O)NCCCC[C@@H](C(N)=O)NC(=O)[C@H](Cc2c[nH]c3ccccc23)NC(=O)[C@H](CCCNC(=N)N)NC(=O)[C@@H](Cc2ccccc2)NC(=O)[C@@H]2C[C@@H](O)CN2C1=O [Example 22, {2-[2-(2-{2-[2-(19-Carboxynonadecanoylamino)ethoxy]ethoxy}acetylamino)ethoxy]ethoxy}acetyl-Gly-D-Ser-Gln-Ser-Ser-Gln-His-Lys(biscarboxymethyl)β-Ala-Nle-c[Glu-Hyp-D-Phe-Arg-Trp-Lys]-NH2] ({C20 diacid-AEEA-AEEA}-G[dS]QSSQH[Lys(CH2CO2H)2][βAla][Nle]E[Hyp][dF]RWK-NH2; lactam 11-16)
- Ki (human MC4 receptor): 0.55 nM
- pKi (MC1 receptor): < 5.00

SMILES: CCCC[C@H](NC(=O)[C@H](CCNC(=O)CN(CC(=O)O)CC(=O)O)NC(=O)[C@H](Cc1c[nH]cn1)NC(=O)[C@H](CCC(N)=O)NC(=O)[C@H](CO)NC(=O)CNC(=O)COCCOCCNC(=O)CCCCCCCCCCCCCCCc1nnn[nH]1)C(=O)N[C@H]1CCC(=O)NCCCC[C@@H](C(N)=O)NC(=O)[C@H](Cc2c[nH]c3ccccc23)NC(=O)[C@H](CCCNC(=N)N)NC(=O)[C@@H](Cc2ccccc2)NC(=O)[C@@H]2C[C@@H](O)CN2C1=O [Example 10, (2-{2-[16-(Tetrazol-5-yl)hexadecanoylamino]ethoxy}ethoxy)acetyl-Gly-Ser-Gln-His-Dab(BCMA)-Nle-c[Glu-Hyp-D-Phe-Arg-Trp-Lys]-NH2] ({Palmitoyl(16-(5-tetrazolyl))-AEEA}-GSQH[Dab](NTA)[Nle]E[Hyp][dF]RWK-NH2; lactam 7-12)
- pKi (human MC4 receptor): 8.98
- pKi (MC1 receptor; [2]): < 5.00

SMILES: CCCC[C@H](NC(=O)[C@H](CNC(=O)CN(CC(=O)O)CC(=O)O)NC(=O)[C@H](Cc1c[nH]cn1)NC(=O)[C@H](CCC(N)=O)NC(=O)[C@H](CO)NC(=O)CNC(=O)COCCOCCNC(=O)CCCS(=O)(=O)NC(=O)CCCCCCCCCCCCCCCc1nnn[nH]1)C(=O)N[C@H]1CCC(=O)NCCCC[C@@H](C(N)=O)NC(=O)[C@H](Cc2c[nH]c3ccccc23)NC(=O)[C@H](CCCNC(=N)N)NC(=O)[C@@H](Cc2ccccc2)NC(=O)[C@@H]2C[C@@H](O)CN2C1=O [Example 11, [2-(2-{4-[16-(Tetrazol-5-yl)hexadecanoylsulfamoyl]butanoylamino}ethoxy)ethoxy]acetyl-Gly-Ser-Gln-His-Dap(BCMA)-Nle-c[Glu-Hyp-D-Phe-Arg-Trp-Lys]-NH2] ({X2-AEEA}-GSQH[Dap](NTA)[Nle]E[Hyp][dF]RWK-NH2; lactam 7-12)
- Ki (human MC4 receptor): 3.25 nM
- pKi (MC1 receptor): 5.01

SMILES: CCCC[C@H](NC(=O)[C@H](CNC(=O)CN(CC(=O)O)CC(=O)O)NC(=O)[C@H](Cc1cnc[nH]1)NC(=O)[C@H](CCC(N)=O)NC(=O)[C@H](CO)NC(=O)CNC(=O)COCCOCCNC(=O)CCCCCCCCCCCCCCCc1nnn[nH]1)C(=O)N[C@H]1CCC(=O)NCCCC[C@@H](C(N)=O)NC(=O)[C@H](Cc2c[nH]c3ccccc23)NC(=O)[C@H](CCCN=C(N)N)NC(=O)[C@@H](Cc2ccccc2)NC(=O)[C@@H]2C[C@@H](O)CN2C1=O [Example 9, (2-{2-[16-(Tetrazol-5-yl)hexadecanoylamino]ethoxy}ethoxy)acetyl-Gly-Ser-Gln-His-Dap(BCMA)-Nle-c[Glu-Hyp-D-Phe-Arg-Trp-Lys]-NH2] ({Palmitoyl(16-(5-tetrazolyl))-AEEA}-GSQH[Dap](NTA)[Nle]E[Hyp][dF]RWK-NH2; lactam 7-12)
- Ki (human MC4 receptor): 0.58 nM
- pKi (MC1 receptor): 5.57

SMILES: CCCC[C@H](NC(=O)[C@H](CN(CC(=O)O)CC(=O)O)NC(=O)[C@H](Cc1ccc(O)cc1)NC(=O)[C@H](CCC(N)=O)NC(=O)[C@H](CO)NC(=O)CNC(=O)COCCOCCNC(=O)CCCCCCCCCCCCCCCc1nnn[nH]1)C(=O)N[C@H]1CCC(=O)NCCCC[C@@H](C(N)=O)NC(=O)[C@H](Cc2c[nH]c3ccccc23)NC(=O)[C@H](CCCNC(=N)N)NC(=O)[C@@H](Cc2ccccc2)NC(=O)[C@@H]2C[C@@H](O)CN2C1=O [Example 23, (2-{2-[16-(Tetrazol-5-yl)hexadecanoylamino]ethoxy}ethoxy)acetyl-Gly-Ser-Gln-Tyr-Dap(biscarboxymethyl)-Nle-c[Glu-Hyp-D-Phe-Arg-Trp-Lys]-NH2] ({Palmitoyl(16-(5-tetrazolyl))-AEEA}-GSQY[X1][Nle]E[Hyp][dF]RWK-NH2; lactam 7-12)
- pKi (human MC4 receptor): 8.10
- pKi (MC1 receptor; [2]): < 5.00

Reference: patent US20100173835A1, “Peptides for Treatment of Obesity” (Novo Nordisk A/S, priority 2008, published 2010)
